A word on the IC50: it is the concentration that gives 50% inhibition. A high value points to a need for much substance. What is called kinetic solubility is the concentration staying in solution when a stock, usually in DMSO, is diluted into the medium.

≈ marks a conversion by molar mass, not a printed value.

The target in series [1] is DNA gyrase subunit A/DNA gyrase subunit B (Mycobacterium tuberculosis (strain ATCC 25618 / H37Rv), UniProt P9WG45+P9WG47). Nature of the series: Inhibition of Mycobacterium tuberculosis H37Rv DNA gyrase.
DNA gyrase subunit A/DNA gyrase subunit B, sequence (P9WG45 whole entry): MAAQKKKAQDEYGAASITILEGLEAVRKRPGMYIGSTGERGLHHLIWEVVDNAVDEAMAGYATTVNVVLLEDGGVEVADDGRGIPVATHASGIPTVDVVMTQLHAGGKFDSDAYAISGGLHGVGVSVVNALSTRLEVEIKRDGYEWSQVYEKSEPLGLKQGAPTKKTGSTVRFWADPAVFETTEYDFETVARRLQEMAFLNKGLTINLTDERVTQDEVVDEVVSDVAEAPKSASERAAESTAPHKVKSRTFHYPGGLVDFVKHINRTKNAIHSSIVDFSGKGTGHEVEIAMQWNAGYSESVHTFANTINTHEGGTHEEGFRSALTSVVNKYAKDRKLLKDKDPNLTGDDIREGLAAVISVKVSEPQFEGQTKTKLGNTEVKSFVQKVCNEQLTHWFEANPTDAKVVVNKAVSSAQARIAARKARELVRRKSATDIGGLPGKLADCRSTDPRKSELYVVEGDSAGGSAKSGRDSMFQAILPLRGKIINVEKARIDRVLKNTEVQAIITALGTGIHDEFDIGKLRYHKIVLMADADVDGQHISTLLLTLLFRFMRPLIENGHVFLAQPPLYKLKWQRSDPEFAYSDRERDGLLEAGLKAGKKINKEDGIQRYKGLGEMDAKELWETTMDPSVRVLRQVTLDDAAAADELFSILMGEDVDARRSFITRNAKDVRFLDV
DNA gyrase subunit A/DNA gyrase subunit B, sequence (P9WG47 whole entry): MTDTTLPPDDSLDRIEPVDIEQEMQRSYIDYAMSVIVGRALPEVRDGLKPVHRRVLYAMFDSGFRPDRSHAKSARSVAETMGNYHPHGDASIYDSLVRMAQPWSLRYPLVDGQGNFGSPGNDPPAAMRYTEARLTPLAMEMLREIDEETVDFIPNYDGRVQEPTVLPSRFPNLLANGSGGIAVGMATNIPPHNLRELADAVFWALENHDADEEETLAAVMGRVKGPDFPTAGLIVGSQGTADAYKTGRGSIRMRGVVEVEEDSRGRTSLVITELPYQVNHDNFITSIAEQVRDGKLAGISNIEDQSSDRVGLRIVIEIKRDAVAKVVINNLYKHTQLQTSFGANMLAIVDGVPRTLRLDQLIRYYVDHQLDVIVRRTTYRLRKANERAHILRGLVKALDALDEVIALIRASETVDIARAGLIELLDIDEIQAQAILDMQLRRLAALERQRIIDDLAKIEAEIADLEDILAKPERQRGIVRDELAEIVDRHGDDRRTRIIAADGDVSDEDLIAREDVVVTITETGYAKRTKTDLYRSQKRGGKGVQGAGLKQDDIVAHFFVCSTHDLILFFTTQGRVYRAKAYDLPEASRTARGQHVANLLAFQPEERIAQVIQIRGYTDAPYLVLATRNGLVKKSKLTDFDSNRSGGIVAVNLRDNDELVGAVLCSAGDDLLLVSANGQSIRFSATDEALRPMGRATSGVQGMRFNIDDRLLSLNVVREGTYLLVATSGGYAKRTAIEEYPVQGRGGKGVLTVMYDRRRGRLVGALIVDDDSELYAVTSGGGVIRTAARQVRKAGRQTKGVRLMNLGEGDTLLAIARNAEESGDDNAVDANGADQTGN
A further series addresses DNA gyrase (Staphylococcus aureus, UniProt P0A0K8+P20831).
In another series the test system is Staphylococcus aureus. The experiment in a line: microbe, parasite or virus in culture. Particulars: ATTC 25923, 192 h.
Series [2] concerns Mycobacterium tuberculosis. The experiment in a line: microbe, parasite or virus in culture. As to conditions: H37Rv, 264 h.
Description: Antibacterial activity against wild type Mycobacterium tuberculosis H37Rv assessed as inhibition of bacterial growth incubated for 11 days
Series [3] deals with Mycobacterium tuberculosis. The experiment in a line: microbe, parasite or virus in culture. As to conditions: H37Rv, 264 h. The source holds these as a separate data set.
Description: Antibacterial activity against Mycobacterium tuberculosis H37Rv gyrA -FDASTetON-1 hypomorph assessed as inhibition of bacterial growth incubated for 11 days
Series [4] relates to Mycobacterium tuberculosis. The experiment in a line: microbe, parasite or virus in culture. As to conditions: H37Rv, 192 h.
Description: Antibacterial activity against Mycobacterium tuberculosis H37Rv assessed as inhibition of bacterial growth measured after 8 days by Alamar blue reagent based broth microdilution method
Another series concerns Escherichia coli. Nature of the series: microbe, parasite or virus in culture. As to conditions: ATTC 25922, 192 h.

DNA gyrase, sequence (P0A0K8 whole entry): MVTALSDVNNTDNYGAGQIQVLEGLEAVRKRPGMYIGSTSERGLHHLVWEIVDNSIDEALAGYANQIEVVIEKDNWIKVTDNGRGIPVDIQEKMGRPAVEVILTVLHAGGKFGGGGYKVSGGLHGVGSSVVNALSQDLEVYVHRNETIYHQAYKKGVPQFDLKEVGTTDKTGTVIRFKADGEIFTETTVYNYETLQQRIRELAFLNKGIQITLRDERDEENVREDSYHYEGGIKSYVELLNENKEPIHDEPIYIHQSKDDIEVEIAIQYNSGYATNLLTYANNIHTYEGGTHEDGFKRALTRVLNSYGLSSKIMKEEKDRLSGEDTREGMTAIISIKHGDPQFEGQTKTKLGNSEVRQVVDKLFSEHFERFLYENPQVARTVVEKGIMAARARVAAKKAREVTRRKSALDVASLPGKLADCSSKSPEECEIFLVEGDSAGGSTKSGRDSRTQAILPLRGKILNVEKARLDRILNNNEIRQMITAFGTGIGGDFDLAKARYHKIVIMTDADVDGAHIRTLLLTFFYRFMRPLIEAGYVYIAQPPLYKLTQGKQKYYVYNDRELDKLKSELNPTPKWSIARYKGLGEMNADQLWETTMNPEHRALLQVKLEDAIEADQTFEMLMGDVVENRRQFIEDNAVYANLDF
DNA gyrase, sequence (P20831 whole entry): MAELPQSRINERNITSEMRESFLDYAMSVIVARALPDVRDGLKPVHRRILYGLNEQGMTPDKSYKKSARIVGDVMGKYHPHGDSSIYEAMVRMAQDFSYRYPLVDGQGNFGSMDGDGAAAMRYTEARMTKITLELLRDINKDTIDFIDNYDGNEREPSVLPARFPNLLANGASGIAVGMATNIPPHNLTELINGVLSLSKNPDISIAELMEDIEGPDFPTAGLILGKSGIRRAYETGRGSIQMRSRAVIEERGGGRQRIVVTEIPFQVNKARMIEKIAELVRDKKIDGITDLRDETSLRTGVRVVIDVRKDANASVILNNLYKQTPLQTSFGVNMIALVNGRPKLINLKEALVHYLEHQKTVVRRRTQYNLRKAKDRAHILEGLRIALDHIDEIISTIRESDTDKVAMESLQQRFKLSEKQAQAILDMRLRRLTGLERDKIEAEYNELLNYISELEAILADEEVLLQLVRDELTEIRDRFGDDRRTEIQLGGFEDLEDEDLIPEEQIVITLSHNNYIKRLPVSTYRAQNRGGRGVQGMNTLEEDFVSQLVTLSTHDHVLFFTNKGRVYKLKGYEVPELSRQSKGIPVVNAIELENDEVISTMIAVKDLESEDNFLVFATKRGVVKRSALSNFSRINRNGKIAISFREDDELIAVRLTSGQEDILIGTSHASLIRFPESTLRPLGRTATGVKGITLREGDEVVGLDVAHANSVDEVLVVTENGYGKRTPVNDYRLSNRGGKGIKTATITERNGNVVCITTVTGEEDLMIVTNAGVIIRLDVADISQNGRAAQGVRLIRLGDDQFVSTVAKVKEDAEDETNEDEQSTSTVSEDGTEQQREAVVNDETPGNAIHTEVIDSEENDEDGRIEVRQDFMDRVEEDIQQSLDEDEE

On to `C[C@@H]1CN2c3c(cc4c(N5CC[C@H](O)C5)noc4c3F)CC3(C(=O)NC(=O)NC3=O)[C@H]2[C@H](C)O1`, for which the IC50 in series [1] was found to be 20 µM; against DNA gyrase, 6.9 µM. Moreover, the MIC against Staphylococcus aureus is 64 µM (≈ 30.3 µg/mL); in series [4], 5.9 µM (≈ 2.79 µg/mL); with Escherichia coli, over 125 µM. The MIC50 is 3.3 µM (≈ 1.56 µg/mL) in series [2] and 0.92 µM (≈ 0.436 µg/mL) in series [3]. Also, the MIC99 in series [2] worked out at 5.9 µM (≈ 2.79 µg/mL); in series [3], 2.4 µM (≈ 1.14 µg/mL).

Consider `C[C@@H]1CN2c3c(cc4c(N5C[C@@H](O)[C@H](O)C5)noc4c3F)CC3(C(=O)NC(=O)NC3=O)[C@H]2[C@H](C)O1`, for which the results for the IC50 (in series [1]; at DNA gyrase) were 16 µM and 6.6 µM, respectively. The results for the MIC (with Staphylococcus aureus; in series [4]) were over 125 µM and 5.9 µM (≈ 2.89 µg/mL), respectively. Also, the MIC50 in series [2] amounted to 3.65 µM (≈ 1.79 µg/mL); in series [3], 1.24 µM (≈ 0.607 µg/mL). The results for the MIC99 in series [2] and in series [3] were 6.75 µM (≈ 3.3 µg/mL) and 3.2 µM (≈ 1.57 µg/mL), respectively.

As for `C[C@@H]1CN2c3c(cc4c(N5C(=O)OC[C@@H]5C)noc4c3F)CC3(C(=O)NC(=O)NC3=O)[C@H]2[C@H](C)O1` [ZOLIFLODACIN], the MIC50 in series [2] was 20 µM (≈ 9.75 µg/mL); in series [3] it was 4.6 µM (≈ 2.24 µg/mL). Further, the MIC99 in series [2] is 44 µM (≈ 21.4 µg/mL); in series [3], 12 µM (≈ 5.85 µg/mL). Also, the kinetic solubility at 20 h, 200 µM in “physchem” is 160 µM (≈ 78 µg/mL). Further, the MIC amounted to 0.35 µM (≈ 0.171 µg/mL) in series [4] and 1.4 µM (≈ 0.682 µg/mL) in the series with Escherichia coli.

For the origin of these results see ChEMBL document CHEMBL5154899, “Spiropyrimidinetrione DNA Gyrase Inhibitors with Potent and Selective Antituberculosis Activity” (J Med Chem, 2022).
